Converted amounts (≈) assume the structure as drawn. Each block holds one molecule with its values, some of them ahead of it.
Assays:
[1] = test system: Cryptococcus neoformans (ATCC 32045); test: Minimum inhibitory concentration assay, broth microdilution; assay type: cell-based; conditions: YPD, 10^6 cells mL^−1, peptides 50 to 0.004 µg mL^−1, 24 h, absorbance 600 nm, ND = MIC50 not reached, three independent experiments
C. neoformans infection = test system: C. neoformans infection; set-up: method as in PMID 34203688; conditions: treated mice; cited from earlier work
[2] = test system: laccase from C. neoformans; conditions: cited from earlier work

- MIC50 ([1]; Cryptococcus neoformans, ATCC32045, concentration required to inhibit 50% of yeast growth, read-out: MIC50 against C. neoformans): 500 µg/mL (≈ 709 µM)
Structure (SMILES): CCC(C)n1ncn(-c2ccc(N3CCN(c4ccc(OCC5COC(Cn6cncn6)(c6ccc(Cl)cc6Cl)O5)cc4)CC3)cc2)c1=O (centres unmarked) [Itraconazole]

Structure (SMILES): O=c1oc2c(O)c(O)cc3c(=O)oc4c(O)c(O)cc1c4c23 [EA, Ellagic acid]
- survival rate toward C. neoformans infection (C. neoformans infection): 70%
- inhibition of laccase from C. neoformans [2]: interacts and inhibits the laccase

Structure (SMILES): C[C@@H]1[C@H](O)[C@@H](C)/C=C/C=C/CC/C=C/C=C/C=C/C=C/C(O[C@H]2O[C@H](C)[C@@H](O)[C@H](N)[C@@H]2O)CC2O[C@](O)(CC(O)C(O)CCC(O)CC(O)CC(O)CC(=O)O[C@H]1C)CC(O)C2C(=O)O (some centres unmarked) [Nystatin]
- MIC50 against C. neoformans ([1]; concentration required to inhibit 50% of yeast growth): 250 µg/mL (≈ 270 µM)

Structure (SMILES): OC(Cn1cncn1)(Cn1cncn1)c1ccc(F)cc1F [fluconazole]
- survival rate toward C. neoformans infection (C. neoformans infection): 20%

— PMC9416200, “Antifungal Potential of Synthetic Peptides against Cryptococcus neoformans: Mechanism of Action Studies Reveal Synthetic Peptides Induce Membrane–Pore Formation, DNA Degradation, and Apoptosis” (Pharmaceutics, 2022)
